Columns and labels:
Experiment in all cases: cells
[1] = tested on: OVCAR-3; type: functional, cell-based, Homo sapiens; details: Homo sapiens, OVCAR-3;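 note: growth inhibition of human OVCAR-3 cells, determined by a cell viability assay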
Description: SANGER: Inhibition of human OVCAR-3 cell growth in a cell viability assay.

[2] = tested on: U-87 MG; type: functional, cell-based, U-87MG ATCC; details: Homo sapiens;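 note: growth inhibition of the cells measured with a viability assay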
Description: SANGER: Inhibition of human U-87-MG cell growth in a cell viability assay.

[3] = tested on: EW-18; type: functional, cell-based; details: Homo sapiens;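 note: growth inhibition of EW-18 cells, read out by a cell viability assay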
Description: SANGER: Inhibition of human EW-18 cell growth in a cell viability assay.

[4] = tested on: PSN1; type: functional, cell-based, Homo sapiens; details: Homo sapiens, PSN1;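 note: suppression of growth of human PSN1 cells, read out by a cell viability assay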
Description: SANGER: Inhibition of human PSN1 cell growth in a cell viability assay.

[5] = tested on: CP66-MEL; type: functional, cell-based, Homo sapiens; details: Homo sapiens, CP66-MEL;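 note: growth inhibition of CP66-MEL cells determined in a cell viability assay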
Description: SANGER: Inhibition of human CP66-MEL cell growth in a cell viability assay.

[6] = tested on: EC-GI-10; type: functional, cell-based, Homo sapiens; details: Homo sapiens, EC-GI-10
Description: SANGER: Inhibition of human EC-GI-10 cell growth in a cell viability assay.

[7] = tested on: CAL-39; type: functional, cell-based, Homo sapiens; details: Homo sapiens, CAL-39;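 note: cell viability assay measuring growth inhibition of CAL-39 cells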
Description: SANGER: Inhibition of human CAL-39 cell growth in a cell viability assay.

[8] = tested on: AM-38; type: functional, cell-based, Homo sapiens; details: Homo sapiens, AM-38;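 note: growth inhibition of AM-38 cells of human origin, read out by a cell viability assay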
[9] = tested on: JAR; type: functional, cell-based, Homo sapiens; details: Homo sapiens, JAR;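 note: growth inhibition of human JAR cells determined with a cell viability assay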
[10] = tested on: SW 954; type: functional, cell-based, Homo sapiens; details: Homo sapiens, SW 954;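 note: growth inhibition of SW954 human cancer cells, read out as cell viability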
Description: SANGER: Inhibition of human SW954 cell growth in a cell viability assay.

[11] = tested on: ES1; type: functional, cell-based, Homo sapiens; details: Homo sapiens, ES1;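 note: growth inhibition of ES1 cells, read out with a cell viability assay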
Description: SANGER: Inhibition of human ES1 cell growth in a cell viability assay.

[12] = tested on: SF-295; type: functional, cell-based, Homo sapiens; details: Homo sapiens, SF-295; read-out: IC50;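 note: growth inhibition of SF-295 cells, read out with a cell viability assay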
Description: SANGER: Inhibition of human SF295 cell growth in a cell viability assay.

[13] = tested on: U-251; type: functional, cell-based, Homo sapiens; details: Homo sapiens, U-251;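 note: growth inhibition of human U-251 cells, read out through a cell viability assay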
Description: SANGER: Inhibition of human U251 cell growth in a cell viability assay.

[14] = tested on: HOP-62; type: functional, cell-based, Homo sapiens; details: Homo sapiens, HOP-62;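 note: cell growth inhibition determined with a viability assay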
Description: SANGER: Inhibition of human HOP-62 cell growth in a cell viability assay.

[15] = tested on: SW1573; type: functional, cell-based, Homo sapiens; details: Homo sapiens, SW1573;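 note: growth inhibition of SW1573 cells, read out with a cell viability assay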
Description: SANGER: Inhibition of human SW1573 cell growth in a cell viability assay.

[16] = tested on: ES3; type: functional, cell-based, Homo sapiens; details: Homo sapiens, ES3;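 note: growth inhibition of ES3 cells, read out with a cell viability assay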
[17] = tested on: KM-H2; type: functional, cell-based; details: Homo sapiens;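 note: growth inhibition of KM-H2 cells, read out by a cell viability assay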
Description: SANGER: Inhibition of human KM-H2 cell growth in a cell viability assay.

[18] = tested on: KE-37; type: functional, cell-based; details: Homo sapiens;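 note: growth inhibition of KE-37 cells, read out with a cell viability assay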
Description: SANGER: Inhibition of human KE-37 cell growth in a cell viability assay.

[19] = tested on: HCE-T; type: functional, cell-based, Homo sapiens; details: Homo sapiens, HCE-T;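 note: cell viability assay read-out, reporting inhibition of HCE-T cell growth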
Description: SANGER: Inhibition of human HCE-T cell growth in a cell viability assay.

[20] = tested on: MSTO-211H; type: functional, cell-based, Homo sapiens; details: Homo sapiens, MSTO-211H
Description: SANGER: Inhibition of human MSTO-211H cell growth in a cell viability assay.

[21] = tested on: NMC-G1; type: functional, cell-based, Homo sapiens; details: Homo sapiens, NMC-G1;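 note: growth inhibition of the NMC-G1 cell line, measured with a cell viability read-out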
Description: SANGER: Inhibition of human NMC-G1 cell growth in a cell viability assay.

[22] = tested on: NCI-H209; type: functional, cell-based; details: Homo sapiens;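 note: growth inhibition of human NCI-H209 cells, measured by a cell viability assay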
Description: SANGER: Inhibition of human NCI-H209 cell growth in a cell viability assay.

[23] = tested on: HT1197; type: functional, cell-based, Homo sapiens, HT-1197; details: Homo sapiens, HT1197
Description: SANGER: Inhibition of human HT-1197 cell growth in a cell viability assay.

[24] = tested on: Daoy; type: functional, cell-based, Homo sapiens; details: Homo sapiens, Daoy;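 note: daoy cell growth inhibition, read out as cell viability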
Description: SANGER: Inhibition of human Daoy cell growth in a cell viability assay.

[25] = tested on: SW982; type: functional, cell-based; details: Homo sapiens;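 note: growth inhibition of SW982 cells, read out with a cell viability assay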
Description: SANGER: Inhibition of human SW982 cell growth in a cell viability assay.

[26] = tested on: IST-MES1; type: functional, cell-based, Homo sapiens; details: Homo sapiens, IST-MES1;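 note: growth inhibition of IST-MES1 cells, measured with a cell viability assay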
Description: SANGER: Inhibition of human IST-MES1 cell growth in a cell viability assay.

[27] = tested on: P30-OHK; type: functional, cell-based; details: Homo sapiens;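 note: growth inhibition of the P30-OHK cell line, read out with a cell viability assay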
Description: SANGER: Inhibition of human P30-OHK cell growth in a cell viability assay.

[28] = tested on: EGI-1; type: functional, cell-based, Homo sapiens; details: Homo sapiens, EGI-1;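 note: cell viability readout used to gauge growth inhibition of EGI-1 cells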
Description: SANGER: Inhibition of human EGI-1 cell growth in a cell viability assay.

[29] = tested on: KYSE-140; type: functional, cell-based, Homo sapiens; details: Homo sapiens, KYSE-140;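 note: cell viability assay measuring growth inhibition in human KYSE-140 cells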
Description: SANGER: Inhibition of human KYSE-140 cell growth in a cell viability assay.

[30] = tested on: RPMI-8226; type: functional, cell-based; details: Homo sapiens
Description: SANGER: Inhibition of human RPMI-8226 cell growth in a cell viability assay.

[31] = tested on: COR-L88; type: functional, cell-based; details: Homo sapiens;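 note: growth inhibition of COR-L88 cells, read out with a cell viability assay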
Description: SANGER: Inhibition of human COR-L88 cell growth in a cell viability assay.

[32] = tested on: MFE-280; type: functional, cell-based, Homo sapiens; details: Homo sapiens, MFE-280;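 note: growth inhibition of MFE-280 cells, determined with a cell viability readout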
Description: SANGER: Inhibition of human MFE-280 cell growth in a cell viability assay.

[33] = tested on: LS-513; type: functional, cell-based, Homo sapiens; details: Homo sapiens, LS-513
Description: SANGER: Inhibition of human LS-513 cell growth in a cell viability assay.

[34] = tested on: NCI-H441; type: functional, cell-based; details: Homo sapiens;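 note: growth inhibition of NCI-H441 cells, read out with a cell viability assay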
Description: SANGER: Inhibition of human NCI-H441 cell growth in a cell viability assay.

[35] = tested on: SW1417; type: functional, cell-based, Homo sapiens; details: Homo sapiens, SW1417;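 note: growth inhibition of human SW1417 cells, read out with a cell viability assay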
Description: SANGER: Inhibition of human SW1417 cell growth in a cell viability assay.

[36] = tested on: ALL-PO; type: functional, cell-based; details: Homo sapiens;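 note: growth inhibition of ALL-PO cells, read out by a cell viability assay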
Description: SANGER: Inhibition of human ALL-PO cell growth in a cell viability assay.

[37] = tested on: RKO; type: functional, cell-based, Homo sapiens; details: Homo sapiens, RKO;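 note: growth inhibition of human RKO cells, read out with a cell viability assay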
[38] = tested on: DK-MG; type: functional, cell-based, Homo sapiens; details: Homo sapiens, DK-MG;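 note: growth inhibition of DK-MG cells, read out with a cell viability assay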
Description: SANGER: Inhibition of human DK-MG cell growth in a cell viability assay.

[39] = tested on: KP-4; type: functional, cell-based, Homo sapiens; details: Homo sapiens, KP-4; read-out: IC50;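 note: human KP-4 cells, with growth inhibition read out through a cell viability assay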
Description: SANGER: Inhibition of human KP-4 cell growth in a cell viability assay.

[40] = tested on: CAL-51; type: functional, cell-based, Homo sapiens; details: Homo sapiens, CAL-51;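 note: human CAL-51 cell line, growth inhibition read out via a cell viability assay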
Description: SANGER: Inhibition of human CAL-51 cell growth in a cell viability assay.

[41] = tested on: UMUC3; type: functional, cell-based, Homo sapiens; details: Homo sapiens, UMUC3;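 note: growth inhibition of human UM-UC-3 cells, read out with a cell viability assay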
Description: SANGER: Inhibition of human UM-UC-3 cell growth in a cell viability assay.

[42] = tested on: ESS-1; type: functional, cell-based, Homo sapiens; details: Homo sapiens, ESS-1;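 note: growth inhibition of human ESS-1 cells, read out by a cell viability assay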
Description: SANGER: Inhibition of human ESS-1 cell growth in a cell viability assay.

[43] = tested on: SF-268; type: functional, cell-based, Homo sapiens; details: Homo sapiens, SF-268;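 note: growth inhibition of SF-268 cells determined with a cell viability assay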
Description: SANGER: Inhibition of human SF268 cell growth in a cell viability assay.

[44] = tested on: TE-8; type: functional, cell-based, Homo sapiens; details: Homo sapiens, TE-8;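 note: growth inhibition of TE-8 cells, measured with a cell viability readout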
Description: SANGER: Inhibition of human TE-8 cell growth in a cell viability assay.

[45] = tested on: MDA-MB-453; type: functional, cell-based, Homo sapiens; details: Homo sapiens, MDA-MB-453
Description: SANGER: Inhibition of human MDA-MB-453 cell growth in a cell viability assay.

[46] = tested on: ES8; type: functional, cell-based, Homo sapiens; details: Homo sapiens, ES8;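 note: growth inhibition of human ES8 cells, read out with a cell viability assay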
Description: SANGER: Inhibition of human ES8 cell growth in a cell viability assay.

[47] = tested on: SW837; type: functional, cell-based, Homo sapiens; details: Homo sapiens, SW837;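 note: growth inhibition of SW837 cells, determined with a cell viability assay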
Description: SANGER: Inhibition of human SW837 cell growth in a cell viability assay.

[48] = tested on: Calu-3; type: functional, cell-based, Homo sapiens; details: Homo sapiens, Calu-3;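 note: growth inhibition of human Calu-3 cells, determined with a cell viability assay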
Description: SANGER: Inhibition of human Calu-3 cell growth in a cell viability assay.

[49] = tested on: YKG-1; type: functional, cell-based, Homo sapiens; details: Homo sapiens, YKG-1;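 note: cell growth inhibition, read out with a viability assay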
Description: SANGER: Inhibition of human YKG-1 cell growth in a cell viability assay.

[50] = tested on: SK-MEL-30; type: functional, cell-based; details: Homo sapiens;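 note: growth inhibition of SK-MEL-30 cells, determined with a cell viability assay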
Description: SANGER: Inhibition of human SK-MEL-30 cell growth in a cell viability assay.

[51] = tested on: BEN; type: functional, cell-based, Homo sapiens; details: Homo sapiens, BEN;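 note: growth inhibition of the BEN cell line, read out with a cell viability assay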
Description: SANGER: Inhibition of human BEN cell growth in a cell viability assay.

Compound: C=CCc1cccc(/C=N/NC(=O)CN2CCN(Cc3ccccc3)CC2)c1O [PAC-1]
- IC50 [1]: > 2560 nM
- IC50 [2]: > 2560 nM
- IC50 [3]: > 2560 nM
- IC50 [4]: > 2560 nM
- IC50 [5]: > 2560 nM
- IC50 [6]: > 2560 nM
- IC50 [7]: > 2560 nM
- IC50 [8]: > 2560 nM
- IC50 [9]: > 2560 nM
- IC50 [10]: > 2560 nM
- IC50 [11]: > 2560 nM
- IC50 [12]: > 2560 nM
- IC50 [13]: > 2560 nM
- IC50 [14]: 2540 nM
- IC50 [15]: > 2560 nM
- IC50 [16]: > 2560 nM
- IC50 [17]: > 2560 nM
- IC50 [18]: 215 nM
- IC50 [19]: > 2560 nM
- IC50 [20]: > 2560 nM
- IC50 [21]: > 2560 nM
- IC50 [22]: > 2560 nM
- IC50 [23]: > 2560 nM
- IC50 [24]: 2190 nM
- IC50 [25]: > 2560 nM
- IC50 [26]: > 2560 nM
- IC50 [27]: > 2560 nM
- IC50 [28]: > 2560 nM
- IC50 [29]: > 2560 nM
- IC50 [30]: > 2560 nM
- IC50 [31]: > 2560 nM
- IC50 [32]: > 2560 nM
- IC50 [33]: > 2560 nM
- IC50 [34]: > 2560 nM
- IC50 [35]: > 2560 nM
- IC50 [36]: > 2560 nM
- IC50 [37]: > 2560 nM
- IC50 [38]: > 2560 nM
- IC50 [39]: > 2560 nM
- IC50 [40]: > 2560 nM
- IC50 [41]: > 2560 nM
- IC50 [42]: > 2560 nM
- IC50 [43]: > 2560 nM
- IC50 [44]: > 2560 nM
- IC50 [45]: > 2560 nM
- IC50 [46]: > 2560 nM
- IC50 [47]: > 2560 nM
- IC50 [48]: > 2560 nM
- IC50 [49]: > 2560 nM
- IC50 [50]: > 2560 nM
- IC50 [51]: > 2560 nM

Compound: Cc1ccc(Nc2nccc(N(C)c3ccc4c(C)n(C)nc4c3)n2)cc1S(N)(=O)=O [PAZOPANIB]
- IC50 [1]: > 8000 nM
- IC50 [2]: > 8000 nM
- IC50 [3]: > 8000 nM
- IC50 [4]: > 8000 nM
- IC50 [5]: > 8000 nM
- IC50 [6]: > 8000 nM
- IC50 [7]: > 8000 nM
- IC50 [8]: > 8000 nM
- IC50 [9]: > 8000 nM
- IC50 [10]: > 8000 nM
- IC50 [11]: > 8000 nM
- IC50 [12]: > 8000 nM
- IC50 [13]: > 8000 nM
- IC50 [14]: > 8000 nM
- IC50 [15]: > 8000 nM
- IC50 [16]: > 8000 nM
- IC50 [17]: > 8000 nM
- IC50 [18]: > 8000 nM
- IC50 [19]: > 8000 nM
- IC50 [20]: > 8000 nM
- IC50 [21]: 6550 nM
- IC50 [22]: > 8000 nM
- IC50 [23]: > 8000 nM
- IC50 [24]: 4780 nM
- IC50 [25]: > 8000 nM
- IC50 [26]: > 8000 nM
- IC50 [27]: 5470 nM
- IC50 [28]: > 8000 nM
- IC50 [29]: > 8000 nM
- IC50 [30]: > 8000 nM
- IC50 [31]: > 8000 nM
- IC50 [32]: > 8000 nM
- IC50 [33]: > 8000 nM
- IC50 [34]: > 8000 nM
- IC50 [35]: > 8000 nM
- IC50 [36]: > 8000 nM
- IC50 [37]: > 8000 nM
- IC50 [38]: 5720 nM
- IC50 [39]: > 8000 nM
- IC50 [40]: > 8000 nM
- IC50 [41]: > 8000 nM
- IC50 [42]: 1600 nM
- IC50 [43]: > 8000 nM
- IC50 [44]: 6160 nM
- IC50 [45]: > 8000 nM
- IC50 [46]: > 8000 nM
- IC50 [47]: > 8000 nM
- IC50 [48]: > 8000 nM
- IC50 [49]: > 8000 nM
- IC50 [50]: > 8000 nM
- IC50 [51]: > 8000 nM
